Target: High affinity cGMP-specific 3',5'-cyclic phosphodiesterase 9A (Homo sapiens, UniProt O76083)
Assay: Inhibition of human PDE9A expressed in Escherichia coli DH10 by scintillation proximity assay

High affinity cGMP-specific 3',5'-cyclic phosphodiesterase 9A, sequence (O76083 whole entry): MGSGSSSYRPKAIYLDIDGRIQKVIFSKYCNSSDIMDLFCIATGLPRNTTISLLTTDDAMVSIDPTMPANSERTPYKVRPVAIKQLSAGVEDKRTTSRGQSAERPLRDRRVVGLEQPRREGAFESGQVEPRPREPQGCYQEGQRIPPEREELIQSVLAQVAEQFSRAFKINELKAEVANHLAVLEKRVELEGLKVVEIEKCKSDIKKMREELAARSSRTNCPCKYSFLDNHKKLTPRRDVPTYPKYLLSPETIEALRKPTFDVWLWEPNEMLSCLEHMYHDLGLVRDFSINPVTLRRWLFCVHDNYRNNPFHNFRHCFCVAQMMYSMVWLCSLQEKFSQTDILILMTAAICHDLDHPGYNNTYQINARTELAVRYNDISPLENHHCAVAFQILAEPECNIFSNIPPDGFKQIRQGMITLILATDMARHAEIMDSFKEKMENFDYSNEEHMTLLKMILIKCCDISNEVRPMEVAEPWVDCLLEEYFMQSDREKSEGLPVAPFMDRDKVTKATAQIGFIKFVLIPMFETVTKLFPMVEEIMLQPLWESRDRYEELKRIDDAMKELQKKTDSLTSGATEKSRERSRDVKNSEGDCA

- IC50: 65 nM
SMILES: O=c1[nH]c(Cc2ccccn2)nc2c1cnn2C1CCOCC1 [OSORESNONTRINE]

Reference: ChEMBL document CHEMBL5233201, “Progress in mechanistically novel treatments for schizophrenia” (RSC Med Chem, 2021)
